In ChEMBL document CHEMBL4811256, “Synthesis and evaluation of multi-target-directed ligands with BACE-1 inhibitory and Nrf2 agonist activities as potential agents against Alzheimer's disease” (Eur J Med Chem, 2021):
Activity calls are given as the source filed them. The calls are words filed in the database; no cut-off is given here.

Assays:
[1] = tested on: PC-12; test: Activation of Keap1-Nrf2-ARE pathway in rat PC-12 assessed as upregulation of HO-1 protein expression at 10 uM measured after 6 to 24 hrs by Western blot analysis; details: filed as activator, time 6-24 hrs
[2] = tested on: PC-12; test: Protection against H2O2-induced mitochondrial dysfunction in rat PC-12 cells assessed as change in mitochondrial membrane potential at 10 uM pretreated with compound for 12 hrs followed by H2O2 challenge by JC-1 staining based flow cytometry (reference value: 73 %); format: functional
[3] = tested on: PC-12; test: Protection against H2O2-induced ROS accumulation in rat PC-12 cells assessed as intracellular ROS level by measuring mean fluorescence intensity pretreated for 12 hrs followed by H2O2 challenge by DCFH-DA staining based flow cytometry; format: functional, cell-based; details: dose 2.5-10 µM
[4] = target: T1, Nuclear factor erythroid 2-related factor 2 (Mus musculus) (UniProt Q60795); test: Activation of Nrf2 in mouse BV-2 cells assessed as upregulation of TrxR1 protein expression after 24 hrs by Western blot analysis; format: cell-based; details: filed as activator, dose 2.5-10 µM
T1 sequence (whole entry): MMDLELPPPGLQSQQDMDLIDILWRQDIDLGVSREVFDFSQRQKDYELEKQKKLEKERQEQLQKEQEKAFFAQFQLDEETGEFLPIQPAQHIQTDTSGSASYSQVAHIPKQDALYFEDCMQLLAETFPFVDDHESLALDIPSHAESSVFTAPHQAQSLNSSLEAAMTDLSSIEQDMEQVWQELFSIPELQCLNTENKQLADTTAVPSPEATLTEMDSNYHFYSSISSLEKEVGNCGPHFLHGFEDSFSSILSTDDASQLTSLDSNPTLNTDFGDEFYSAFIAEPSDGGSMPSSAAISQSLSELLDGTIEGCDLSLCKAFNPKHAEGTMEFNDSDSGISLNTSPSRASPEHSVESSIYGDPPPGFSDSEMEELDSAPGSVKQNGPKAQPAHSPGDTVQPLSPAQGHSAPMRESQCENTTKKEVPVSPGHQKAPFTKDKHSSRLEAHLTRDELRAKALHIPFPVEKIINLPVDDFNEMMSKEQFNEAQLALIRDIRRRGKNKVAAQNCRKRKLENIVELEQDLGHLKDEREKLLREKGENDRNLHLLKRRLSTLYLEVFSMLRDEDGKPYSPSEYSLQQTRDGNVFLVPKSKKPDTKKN

[5] = tested on: PC-12; test: Protection against 6-OHDA-induced apoptosis in rat PC-12 cells assessed as early apoptotic cells at 2.5 uM pretreated for 12 hrs followed by 6-OHDA challenge by annexin V FITC/propidium iodide staining based flow cytometry (reference value: 2.4 %); format: functional
[6] = tested on: BV-2; test: Antiinflammatory activity in mouse BV-2 cells transfected with Nrf2 siRNA assessed as inhibition of LPS-induced IL-6 production at 10 uM pretreated with compound for 2 hrs followed by LPS stimulation and further incubated for 18 hrs; format: functional, cell-based; details: time 20.0 hrs
[7] = tested on: PC-12; test: Activation of Keap1-Nrf2-ARE pathway in rat PC-12 assessed as upregulation of TrxR1 protein expression measured after 12 hrs by Western blot analysis; details: filed as activator, dose 2.5-10 µM
[8] = tested on: PC-12; test: Activation of Keap1-Nrf2-ARE pathway in rat PC-12 assessed as upregulation of HO-1 protein expression measured after 12 hrs by Western blot analysis; details: filed as activator, dose 2.5-10 µM
[9] = target: T1, Nuclear factor erythroid 2-related factor 2 (Mus musculus); test: Activation of Nrf2 in mouse BV-2 cells assessed as decrease in LPS-induced NO production pretreated with compound for 2 hrs followed by LPS stimulation and further incubated for 18 hrs by Griess reagent based assay; format: cell-based; details: filed as activator, dose 10.0 µM, time 20.0 hrs
[10] = tested on: PC-12; test: Protection against H2O2-induced apoptosis in rat PC-12 cells assessed as early apoptic cells at 10 uM pretreated for 12 hrs followed by H2O2 challenge by annexin V FITC/propidium iodide staining based flow cytometry (reference value: 2.2 %); format: functional
[11] = tested on: PC-12; test: Activation of Keap1-Nrf2-ARE pathway in rat PC-12 assessed as upregulation of GCLM protein expression measured after 12 hrs by Western blot analysis; details: filed as activator, dose 2.5-10 µM
[12] = Glutathione peroxidase-like activity in pH 7.5 potassium phosphate buffer assessed as catalytic reduction of H2O2 by measuring initial velocity at 25 degreeC using GSH in presence of NADPH by UV absorbance analysis (reference value: 30.41+/- 2.06 microM/min); format: functional
[13] = tested on: PC-12; test: Protection against H2O2-induced apoptosis in rat PC-12 cells assessed as necrotic cells at 5 uM pretreated for 12 hrs followed by H2O2 challenge by annexin V FITC/propidium iodide staining based flow cytometry (reference value: 3.7 %); format: functional
[14] = in vitro; details: PAMPA
[15] = tested on: PC-12; test: Protection against H2O2-induced apoptosis in rat PC-12 cells assessed as necrotic cells at 10 uM pretreated for 12 hrs followed by H2O2 challenge by annexin V FITC/propidium iodide staining based flow cytometry (reference value: 3.7 %); format: functional
[16] = tested on: PC-12; test: Neuroprotective activity against H2O2-induced cell damage in rat PC-12 cells assessed as decrease in cell death at 10 uM pretreated for 12 hrs followed by H2O2 challenge by MTT assay; format: functional, cell-based
[17] = tested on: PC-12; test: Protection against 6-OHDA-induced apoptosis in rat PC-12 cells assessed as early apoptotic cells at 5 uM pretreated for 12 hrs followed by 6-OHDA challenge by annexin V FITC/propidium iodide staining based flow cytometry (reference value: 2.4 %); format: functional
[18] = tested on: PC-12; test: Protection against H2O2-induced mitochondrial dysfunction in rat PC-12 cells assessed as change in mitochondrial membrane potential at 2.5 uM pretreated with compound for 12 hrs followed by H2O2 challenge by JC-1 staining based flow cytometry (reference value: 73 %); format: functional
[19] = tested on: PC-12; test: Protection against 6-OHDA-induced apoptosis in rat PC-12 cells assessed as early apoptotic cells at 10 uM pretreated for 12 hrs followed by 6-OHDA challenge by annexin V FITC/propidium iodide staining based flow cytometry (reference value: 2.4 %); format: functional
[20] = tested on: PC-12; test: Activation of Keap1-Nrf2-ARE pathway in rat PC-12 assessed as upregulation of total Nrf2 protein expression at 10 uM measured after 3 hrs by Western blot analysis; details: filed as activator
[21] = tested on: PC-12; test: Protection against H2O2-induced apoptosis in rat PC-12 cells assessed as viable cells at 5 uM pretreated for 12 hrs followed by H2O2 challenge by annexin V FITC/propidium iodide staining based flow cytometry (reference value: 73.3 %); format: functional; details: read-out: Activity
[22] = tested on: PC-12; test: Protection against 6-OHDA-induced mitochondrial dysfunction in rat PC-12 cells assessed as change in mitochondrial membrane potential at 2.5 uM pretreated with compound for 12 hrs followed by 6-OHDA challenge by JC-1 staining based flow cytometry (reference value: 56 %); format: functional
[23] = tested on: PC-12; test: Protection against H2O2-induced apoptosis in rat PC-12 cells assessed as late apoptic cells at 10 uM pretreated for 12 hrs followed by H2O2 challenge by annexin V FITC/propidium iodide staining based flow cytometry (reference value: 20.8 %); format: functional
[24] = tested on: PC-12; test: Protection against H2O2-induced apoptosis in rat PC-12 cells assessed as viable cells at 2.5 uM pretreated for 12 hrs followed by H2O2 challenge by annexin V FITC/propidium iodide staining based flow cytometry (reference value: 73.3 %); format: functional; details: read-out: Activity

With `CN1C(N)=N[C@](C)(c2cc(-n3[se]c4cc(F)ccc4c3=O)ccc2F)CS1(=O)=O` the Activity [1] was “Active”, the Activity [2] was 89.1% and the Activity [3] was “Dose-Dependent Effect”. For the same compound, the Activity [4] was “Dose-Dependent Effect”, the Activity [5] was 2% and the Activity [6] was “inactive”. For the same compound, the Activity [7] was “Active”, the Activity [8] was “Active” and the Activity [9] was “Active”. For the same compound, the Activity [10] was 2.1%, the Activity [11] was “Active” and the V0 [12] was 183 µM/min. It also gave an Activity [13] of 1.3%, a Papp at 16 h [14] of 160 nm/s and an Activity [15] of 0.6%. For the same compound, the Activity [16] was “Active”, the Activity [17] was 2.5% and the Activity [18] was 75.1%. For the same compound, the Activity [19] was 1.4%, the Activity [20] was “Active” and the viability at 5 µM [21] was 89%. The Activity [22] was 61.2%, the Activity [23] was 4.7% and the viability at 2.5 µM [24] was 83.6%.
